Laboratory results published in US20110313046A1, “COMBINATION THERAPY WITH LISDEXAMPHETAMINE AND EXTENDED RELEASE GUANFACINE” (priority 2010, published 2011).
Like-named read-outs stand apart in the source and are kept apart here.

Assays:
[1] = d-Amphetamine plasma pharmacokinetics, crossover drug-drug interaction study; format: in vivo, healthy adults
Method: (§1) An open-label, randomized, single-center, 3-period, crossover, drug-drug interaction study in 42 healthy adults (18-45 years old) was performed. Subjects received three single, oral dose treatments: 4 mg extended release guanfacine, 50 mg lisdexamphetmaine, and 4 mg extended release guanfacine in combination with 50 mg lisdexamphetmaine. Subjects underwent the three treatment periods with a 7-day washout between each treatment.

CYP450 system = conditions: cited from earlier work
[2] = Lisdexamphetamine plasma pharmacokinetics, crossover drug-drug interaction study; format: in vivo, healthy adults; parameters: lisdexamphetamine plasma concentration, Mean / lisdexamphetamine plasma concentration, Median / lisdexamphetamine plasma concentration, Min / lisdexamphetamine plasma concentration, Max: unit not given here; conditions: for AUC / AUC(0-t) / Cmax / Tmax / Vd/F / CL/F: po, 50 mg
Method: as §1

[3] = Adverse events and safety, crossover drug-drug interaction study; format: in vivo, healthy adults; conditions: TEAEs by treatment; single oral dose (SPD503 4 mg, VYVANSE 50 mg)
Method: A “treatment-emergent adverse event” (TEAE) is an AE that occurred or worsened during the on-treatment period.
A “non-treatment-emergent adverse event” is an AE that occurred during the pre-treatment period or the post-treatment period.
as §1

[4] = young intact rhesus monkeys; cited from earlier work
[5] = Guanfacine plasma pharmacokinetics, crossover drug-drug interaction study; parameters: species or system healthy adults; conditions: human, in vivo
Method: as §1

CYP3A4 = CYP3A4 (Homo sapiens, UniProt P08684); conditions: cited from earlier work
Chain of CYP3A4 (P08684 whole entry, species assumed): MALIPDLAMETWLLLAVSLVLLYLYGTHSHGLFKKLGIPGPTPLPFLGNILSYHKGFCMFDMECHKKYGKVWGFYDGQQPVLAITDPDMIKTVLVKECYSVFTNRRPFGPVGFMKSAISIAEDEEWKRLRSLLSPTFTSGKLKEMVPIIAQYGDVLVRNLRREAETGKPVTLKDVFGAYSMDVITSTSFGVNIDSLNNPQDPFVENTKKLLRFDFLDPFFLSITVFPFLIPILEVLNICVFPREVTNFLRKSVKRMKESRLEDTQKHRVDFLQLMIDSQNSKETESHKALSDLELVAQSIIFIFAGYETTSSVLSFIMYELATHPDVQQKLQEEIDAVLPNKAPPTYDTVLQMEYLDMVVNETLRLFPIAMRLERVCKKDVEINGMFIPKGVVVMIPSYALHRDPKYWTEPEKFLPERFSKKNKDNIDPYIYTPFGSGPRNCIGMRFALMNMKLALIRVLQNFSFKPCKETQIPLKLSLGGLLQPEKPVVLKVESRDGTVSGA

[6] = single oral dose 50 mg, weight normalized
[7] = time 0.5, single oral dose 50 mg
[8] = time 1.5, single oral dose 50 mg
[9] = time 12, single oral dose 50 mg
[10] = time 24, single oral dose 50 mg
[11] = time 30, single oral dose 50 mg
[12] = time 48, single oral dose 50 mg
[13] = time 72, single oral dose 50 mg

C[C@@H](Cc1ccccc1)NC(=O)[C@@H](N)CCCCN [VYVANSE Alone, lisdexamphetamine dimesylate]
mean d-amphetamine plasma concentrations, alone compared with co-administration ([1]; FIG. 2): essentially identical
weight normalized CL/F, alone compared with combination ([1]; between the two treatments): essentially the same
induction or inhibition of the CYP450 system (CYP450 system): neither an inducer nor inhibitor
metabolism by the CYP450 system (CYP450 system): not metabolized by the CYP450 system
mean lisdexamphetamine plasma concentrations, alone compared with co-administration ([2]; FIG. 3): essentially identical
AUC ([2]; human, plasma, single oral dose 50 mg, read-out: lisdexamphetamine AUCinfo, Geo Mean): 32.4 ng·h/mL
AUC ([2]; human, plasma, single oral dose 50 mg, read-out: lisdexamphetamine AUCinfo, Mean): 36.1 ng·h/mL
AUC ([2]; human, plasma, single oral dose 50 mg, read-out: lisdexamphetamine AUCinfo, Median): 33.2 ng·h/mL
AUC(0-t) ([2]; human, plasma, single oral dose 50 mg, read-out: lisdexamphetamine AUClast, Geo Mean): 28.3 ng·h/mL
AUC(0-t) ([2]; human, plasma, single oral dose 50 mg, read-out: lisdexamphetamine AUClast, Mean): 32.1 ng·h/mL
AUC(0-t) ([2]; human, plasma, single oral dose 50 mg, read-out: lisdexamphetamine AUClast, Median): 27.2 ng·h/mL
Cmax ([2]; human, plasma, single oral dose 50 mg, read-out: lisdexamphetamine Cmax, Geo Mean): 22.5 ng/mL
Cmax ([2]; human, plasma, single oral dose 50 mg, read-out: lisdexamphetamine Cmax, Mean): 26.1 ng/mL
Cmax ([2]; human, plasma, single oral dose 50 mg, read-out: lisdexamphetamine Cmax, Median): 25.2 ng/mL
Tmax ([2]; human, plasma, single oral dose 50 mg, read-out: lisdexamphetamine Tmax, Geo Mean): 1.1 h
Tmax ([2]; human, plasma, single oral dose 50 mg, read-out: lisdexamphetamine Tmax, Mean): 1.1 h
Tmax ([2]; human, plasma, single oral dose 50 mg, read-out: lisdexamphetamine Tmax, Median): 1 h
Vd/F ([2]; human, plasma, single oral dose 50 mg, read-out: lisdexamphetamine VZ/F, Geo Mean): 1090 L
Vd/F ([2]; human, plasma, single oral dose 50 mg, read-out: lisdexamphetamine VZ/F, Mean): 1270 L
Vd/F ([2]; human, plasma, single oral dose 50 mg, read-out: lisdexamphetamine VZ/F, Median): 1040 L
CL/F ([2]; human, plasma, single oral dose 50 mg, weight normalized, read-out: lisdexamphetamine CL/F, Geo Mean (converted)): 339 mL/min/kg
CL/F ([2]; human, plasma, single oral dose 50 mg, weight normalized, read-out: lisdexamphetamine CL/F, Mean (converted)): 362 mL/min/kg
CL/F ([2]; human, plasma, single oral dose 50 mg, weight normalized, read-out: lisdexamphetamine CL/F, Median (converted)): 345 mL/min/kg
Vd/F ([2]; human, plasma, single oral dose 50 mg, weight normalized, read-out: lisdexamphetamine VZ/F, Geo Mean): 14.4 L/kg
Vd/F ([2]; human, plasma, single oral dose 50 mg, weight normalized, read-out: lisdexamphetamine VZ/F, Mean): 16 L/kg
Vd/F ([2]; human, plasma, single oral dose 50 mg, weight normalized, read-out: lisdexamphetamine VZ/F, Median): 13.7 L/kg
half-life ([2]; human, plasma, single oral dose 50 mg, read-out: lisdexamphetamine T1/2, Mean (converted)): 0.5 h
lisdexamphetamine AUCinfo, Max ([2]; single oral dose 50 mg): 95.6 ng·h/mL
lisdexamphetamine AUCinfo, Min ([2]; single oral dose 50 mg): 14.2 ng·h/mL
lisdexamphetamine AUClast, Max ([2]; single oral dose 50 mg): 94.3 ng·h/mL
lisdexamphetamine AUClast, Min ([2]; single oral dose 50 mg): 10.2 ng·h/mL
lisdexamphetamine CL/F, Geo Mean ([2]; single oral dose 50 mg): 1543 L/h
lisdexamphetamine CL/F, Max ([2]; single oral dose 50 mg): 3523.94 L/h
lisdexamphetamine CL/F, Mean ([2]; single oral dose 50 mg): 1701.28 L/h
lisdexamphetamine CL/F, Median ([2]; single oral dose 50 mg): 1504.94 L/h
lisdexamphetamine CL/F, Min ([2]; single oral dose 50 mg): 522.89 L/h
lisdexamphetamine Cmax, Max ([2]; single oral dose 50 mg): 82.37 ng/mL
lisdexamphetamine Cmax, Min ([2]; single oral dose 50 mg): 5.87 ng/mL
lisdexamphetamine T1/2, Geo Mean ([2]; single oral dose 50 mg): 0.5 h
lisdexamphetamine T1/2, Max ([2]; single oral dose 50 mg): 0.8 h
lisdexamphetamine T1/2, Min ([2]; single oral dose 50 mg): 0.3 h
lisdexamphetamine Tmax, Max ([2]; single oral dose 50 mg): 1.5 h
lisdexamphetamine Tmax, Min ([2]; single oral dose 50 mg): 1 h
lisdexamphetamine CL/F, Max [2, 6]: 660.7 mL/min/kg
lisdexamphetamine CL/F, Min [2, 6]: 115 mL/min/kg
lisdexamphetamine plasma concentration, Max ([2]; time 0, single oral dose 50 mg): 0
lisdexamphetamine plasma concentration, Mean ([2]; time 0, single oral dose 50 mg): 0
lisdexamphetamine plasma concentration, Median ([2]; time 0, single oral dose 50 mg): 0
lisdexamphetamine plasma concentration, Min ([2]; time 0, single oral dose 50 mg): 0
lisdexamphetamine plasma concentration, Max [2, 7]: 54.99
lisdexamphetamine plasma concentration, Mean [2, 7]: 8.5483
lisdexamphetamine plasma concentration, Median [2, 7]: 4.51
lisdexamphetamine plasma concentration, Min [2, 7]: 0
lisdexamphetamine plasma concentration, Max ([2]; time 1, single oral dose 50 mg): 82.37
lisdexamphetamine plasma concentration, Mean ([2]; time 1, single oral dose 50 mg): 24.921
lisdexamphetamine plasma concentration, Median ([2]; time 1, single oral dose 50 mg): 23.56
lisdexamphetamine plasma concentration, Min ([2]; time 1, single oral dose 50 mg): 4.5
lisdexamphetamine plasma concentration, Max [2, 8]: 41.42
lisdexamphetamine plasma concentration, Mean [2, 8]: 17.7205
lisdexamphetamine plasma concentration, Median [2, 8]: 15.72
lisdexamphetamine plasma concentration, Min [2, 8]: 5.87
lisdexamphetamine plasma concentration, Max ([2]; time 2, single oral dose 50 mg): 19.94
lisdexamphetamine plasma concentration, Mean ([2]; time 2, single oral dose 50 mg): 9.0166
lisdexamphetamine plasma concentration, Median ([2]; time 2, single oral dose 50 mg): 8.17
lisdexamphetamine plasma concentration, Min ([2]; time 2, single oral dose 50 mg): 2.42
lisdexamphetamine plasma concentration, Max ([2]; time 3, single oral dose 50 mg): 6.32
lisdexamphetamine plasma concentration, Mean ([2]; time 3, single oral dose 50 mg): 1.8902
lisdexamphetamine plasma concentration, Median ([2]; time 3, single oral dose 50 mg): 1.87
lisdexamphetamine plasma concentration, Min ([2]; time 3, single oral dose 50 mg): 0
lisdexamphetamine plasma concentration, Max ([2]; time 4, single oral dose 50 mg): 2.28
lisdexamphetamine plasma concentration, Mean ([2]; time 4, single oral dose 50 mg): 0.2849
lisdexamphetamine plasma concentration, Median ([2]; time 4, single oral dose 50 mg): 0
lisdexamphetamine plasma concentration, Min ([2]; time 4, single oral dose 50 mg): 0
lisdexamphetamine plasma concentration, Max ([2]; time 6, single oral dose 50 mg): 0
lisdexamphetamine plasma concentration, Mean ([2]; time 6, single oral dose 50 mg): 0
lisdexamphetamine plasma concentration, Median ([2]; time 6, single oral dose 50 mg): 0
lisdexamphetamine plasma concentration, Min ([2]; time 6, single oral dose 50 mg): 0
lisdexamphetamine plasma concentration, Max ([2]; time 8, single oral dose 50 mg): 0
lisdexamphetamine plasma concentration, Mean ([2]; time 8, single oral dose 50 mg): 0
lisdexamphetamine plasma concentration, Median ([2]; time 8, single oral dose 50 mg): 0
lisdexamphetamine plasma concentration, Min ([2]; time 8, single oral dose 50 mg): 0
lisdexamphetamine plasma concentration, Max [2, 9]: 0
lisdexamphetamine plasma concentration, Mean [2, 9]: 0
lisdexamphetamine plasma concentration, Median [2, 9]: 0
lisdexamphetamine plasma concentration, Min [2, 9]: 0
lisdexamphetamine plasma concentration, Max [2, 10]: 0
lisdexamphetamine plasma concentration, Mean [2, 10]: 0
lisdexamphetamine plasma concentration, Median [2, 10]: 0
lisdexamphetamine plasma concentration, Min [2, 10]: 0
lisdexamphetamine plasma concentration, Max [2, 11]: 0
lisdexamphetamine plasma concentration, Mean [2, 11]: 0
lisdexamphetamine plasma concentration, Median [2, 11]: 0
lisdexamphetamine plasma concentration, Min [2, 11]: 0
lisdexamphetamine plasma concentration, Max [2, 12]: 0
lisdexamphetamine plasma concentration, Mean [2, 12]: 0
lisdexamphetamine plasma concentration, Median [2, 12]: 0
lisdexamphetamine plasma concentration, Min [2, 12]: 0
lisdexamphetamine plasma concentration, Max [2, 13]: 0
lisdexamphetamine plasma concentration, Mean [2, 13]: 0
lisdexamphetamine plasma concentration, Median [2, 13]: 0
lisdexamphetamine plasma concentration, Min [2, 13]: 0
TEAE: Any Event [3]: 8 (19.5) n (%)
TEAE: Arrhythmia supraventricular [3]: 1 (2.4) n (%)
TEAE: Cardiac disorders [3]: 3 (7.3) n (%)
TEAE: Diarrhoea [3]: 0 (0.0) n (%)
TEAE: Dizziness [3]: 3 (7.3) n (%)
TEAE: Dizziness postural [3]: 1 (2.4) n (%)
TEAE: Dry mouth [3]: 1 (2.4) n (%)
TEAE: Dysmenorrhoea [3]: 1 (2.4) n (%)
TEAE: Flushing [3]: 0 (0.0) n (%)
TEAE: Gastrointestinal disorders [3]: 2 (4.9) n (%)
TEAE: General disorders and administration site conditions [3]: 0 (0.0) n (%)
TEAE: Headache [3]: 2 (4.9) n (%)
TEAE: Nausea [3]: 1 (2.4) n (%)
TEAE: Nervous system disorders [3]: 4 (9.8) n (%)
TEAE: Nervousness [3]: 2 (4.9) n (%)
TEAE: Non-cardiac chest pain [3]: 0 (0.0) n (%)
TEAE: Orthostatic hypotension [3]: 0 (0.0) n (%)
TEAE: Palpitations [3]: 1 (2.4) n (%)
TEAE: Paraesthesia [3]: 0 (0.0) n (%)
TEAE: Psychiatric disorders [3]: 2 (4.9) n (%)
TEAE: Psychomotor hyperactivity [3]: 1 (2.4) n (%)
TEAE: Reproductive system and breast disorders [3]: 1 (2.4) n (%)
TEAE: Supraventricular extrasystoles [3]: 0 (0.0) n (%)
TEAE: Tachycardia [3]: 1 (2.4) n (%)
TEAE: Vascular disorders [3]: 0 (0.0) n (%)
TEAE: Wandering pacemaker [3]: 1 (2.4) n (%)

Cl.N=C(N)NC(=O)Cc1c(Cl)cccc1Cl [guanfacine]
delayed response performance [4]: can be improved
guanfacine Cmax in combination compared with alone [5]: higher than when administered alone
metabolism by CYP3A4 (CYP3A4): known to be metabolized by CYP3A4
